Measured values: US9956293B2, “Targeted therapeutics” (Madrigal Pharmaceuticals, Inc., priority 2014, dated 2018)
pIC50: −log10 of the molar value.

Tests used:
[1] = in vivo; conditions: mouse
Experimental: (§1) Tissue Distribution Extraction Procedure for SDC-TRAP Tumor Samples
(§2) A 150 ng/mL solution of SDC-TRAP-0002 in methanol was prepared using an internal spiking solution (500 μg/mL SDC-TRAP-0002 in DMSO). Using the 10 mM stock solutions of the SDC-TRAP molecule and its Hsp90i binding moiety and effector moiety in DMSO, spiking solutions were prepared at 0.025, 0.05, 0.1, 0.5, 1, 5, 10, 50, 100, 250, and 500 μM in DMSO. 5 μL of each spiking solution was added to a 96-deep well plate.
(§3) Quality control standards were prepared from 5 μL of 0.1, 1, and 10 μM calibration standard spiking solution added in triplicate into 96-deep well plate and adding 50 μL of matrix (plasma or homogenized tumor).
(§4) To prepare test samples, test plasma was diluted as needed using blank plasma. Tumor samples were pulverized in liquid nitrogen, weighed, and homogenized in PBS at 5× volume to sample weight. 50 μL of unknown plasma or homogenized tumor sample was mixed with 5 μL of DMSO. The samples were extracted by precipitating calibration standards, QC standards, and unknown samples with 200 μL of internal standard solution. The samples were mixed by vortex at room temperature for approximately 1.5 minutes, then centrifuge at 2-8° C. 150 μL of supernatant was collected and 25 μL of water added. Samples were mixed and analyzed by LC-MS/MS.
(§5) Samples of plasma, heart and tumor were excised from a euthanized mouse, homogenized in PBS at 5 times tissue weight and diluted in 5 μL DMSO/50 μL sample. Prior to analysis, 55 μL samples and calibration standards were precipitated in 200 μL methanol in 96-well plates. Samples were mixed on a vortex mixer for 1.5 minutes at 1500 rpm at room temperature, then centrifuged at 4400 rpm for 10 minutes at 8° C. 150 μL of each supernatant was transferred to a well of a new 96-well plate, and 25 μL of water was added and mixed with the sample. […] For the analysis of samples from female SCID mice, a gradient of solvent A (water/0.1% formic acid) and B (acetonitrile/0.1% formic acid) was used as in Table A below.

[2] = Tissue distribution of SDC-TRAPs in tumor-bearing mice: plasma, tumor, heart (Examples 14-15); conditions: mouse, in vivo
Experimental: as §1, §2, §3, §4, §5

[3] = tested on: HER2; assay: HER2 degradation assay with BT-474 cell line (Example 12, FACS); type: cell-based; conditions: Homo sapiens; BT-474 cells

Row | SMILES | Kp at 1 h [2] | Kp at 6 h [2] | Kp at 24 h [2] | Kp at […] [2] | concentration at 1 h [2] | concentration at 6 h [2] | concentration at 24 h [2] | further results
1 | CCc1c2c(nc3ccc(O)cc13)-c1cc3c(c(=O)n1C2)COC(=O)C3(CC)OC(=O)CN1CCN(c2ccc(-n3c(O)nnc3-c3cc(C(C)C)c(O)cc3O)cc2)CC1 (stereo not drawn) [SDC-TRAP-0056, 4,11-diethyl-9-hydroxy-3,14-dioxo-3,4,12,14-tetrahydro-1H-pyrano[3′,4′:6,7]indolizino[1,2-b]quinolin-4-yl 2-(4-(4-(3-(2,4-dihydroxy-5-isopropylphenyl)-5-hydroxy-4H-1,2,4-triazol-4-yl)phenyl)piperazin-1-yl)acetate] | – | – | – | – | – | – | – | Kp ([1]; Tumor/Plasma Ratio, Tissue Distribution Data for SDC-TRAP-0056, time 6 h): 1.28; Kp ([1]; Tumor/Plasma Ratio, Tissue Distribution Data for SDC-TRAP-0056, time 12 h): 1.95; Kp ([1]; Tumor/Plasma Ratio, Tissue Distribution Data for SDC-TRAP-0056, time […]): 0.00525
2 | COc1ccc(-c2cnoc2-c2cc(OC)c(OC)c(OC)c2)cc1OC(=O)N1CCN(Cc2ccc(-n3c(O)nnc3-c3cc(C(C)C)c(O)cc3O)cc2)CC1 [SDC-TRAP-0098, 2-Methoxy-5-(5-(3,4,5-trimethoxyphenyl)isoxazol-4-yl)phenyl-4-(4-(3-(2,4-dihydroxy-5-isopropylphenyl)-5-hydroxy-4H-1,2,4-triazol-4-yl)benzyl)piperazine-1-carboxylate] | 0.62 | 8.22 | 300 | 0.01 | – | – | – | –
3 | CC(C)c1cc(-c2nnc(O)n2-c2ccc(CC3CCN(CC(=O)Nc4cccc5c4CN(C4CCC(=O)NC4=O)C5=O)CC3)cc2)c(O)cc1O (stereo not drawn) [SDC-TRAP-0116, 2-(4-(4-(3-(2,4-dihydroxy-5-isopropylphenyl)-5-hydroxy-4H-1,2,4-triazol-4-yl)benzyl)piperidin-1-yl)-N-(2-(2,6-dioxopiperidin-3-yl)-1-oxoisoindolin-4-yl)acetamide] | – | – | – | – | – | – | – | pIC50 [3]: 6.01; concentration at 1 h ([1]; Plasma Conc.): 65200 nM; concentration at 6 h ([1]; Plasma Conc.): 595 nM; concentration at 24 h ([1]; Plasma Conc.): 11.1 nM; concentration at 48 h ([1]; Plasma Conc.): 31.5 nM; Kp at 1 h ([1]; Tumor/Plasma Ratio): 0.21; Kp at 6 h ([1]; Tumor/Plasma Ratio): 10.2; Kp at 24 h ([1]; Tumor/Plasma Ratio): 251; Kp at 48 h ([1]; Tumor/Plasma Ratio): 46.5; Kp at […] ([1]; Tumor/Plasma Ratio): 0.03
4 | CCNC(=O)c1nnc(-c2cc(C(C)C)c(O)cc2O)n1-c1ccc(Oc2ccc(C(=O)N3CCC(C(=O)OC4(CC)C(=O)OCc5c4cc4n(c5=O)Cc5c-4nc4ccc(O)cc4c5CC)CC3)cc2)cc1 (stereo not drawn) [SDC-TRAP-0154, 4,11-Diethyl-9-hydroxy-3,14-dioxo-3,4,12,14-tetrahydro-1H-pyrano[3′,4′:6,7]indolizino[1,2-b]quinolin-4-yl 1-(4-(4-(3-(2,4-dihydroxy-5-isopropylphenyl)-5-(ethylcarbamoyl)-4H-1,2,4-triazol-4-yl)phenoxy)benzoyl)piperidine-4-carboxylate] | – | – | – | – | – | – | – | Kp ([1]; Tumor/Plasma Ratio, Tissue Distribution Data for SDC-TRAP-0154, time 1 h): 0.06; Kp ([1]; Tumor/Plasma Ratio, Tissue Distribution Data for SDC-TRAP-0154, time 6 h): 1.86; Kp ([1]; Tumor/Plasma Ratio, Tissue Distribution Data for SDC-TRAP-0154, time 24 h): 11.9; Kp ([1]; Tumor/Plasma Ratio, Tissue Distribution Data for SDC-TRAP-0154, time 48 h): 86; Kp ([1]; Tumor/Plasma Ratio, Tissue Distribution Data for SDC-TRAP-0154, time […]): 0.01
5 | CC(C)c1cc(-c2nnc(O)n2-c2ccc(CN3CCN(C(=O)Oc4ccc(COC(=O)Nc5cccc6c5CN(C5CCC(=O)NC5=O)C6=O)cc4)CC3)c(F)c2)c(O)cc1O (stereo not drawn) [SDC-TRAP-0171, 4-((((2-(2,6-dioxopiperidin-3-yl)-1-oxoisoindolin-4-yl)carbamoyl)oxy)methyl)phenyl-4-(4-(3-(2,4-dihydroxy-5-isopropylphenyl)-5-hydroxy-4H-1,2,4-triazol-4-yl)-2-fluorobenzyl)piperazine-1-carboxylate] | 0.249 | 3.1 | 407 | 0.0164 | 32200 nM | 1210 nM | 1.62 nM | –
6 | CCNC(=O)c1nnc(-c2cc(C(C)C)c(O)cc2O)n1-c1ccc(CN2CCC(C(=O)N3CCN(c4cc(C)c(OC(=O)Nc5cccc6c5CN(C5CCC(=O)NC5=O)C6=O)c(C)c4)CC3)CC2)cc1 (stereo not drawn) [SDC-TRAP-0195, 4-(4-(1-(4-(3-(2,4-dihydroxy-5-isopropylphenyl)-5-(ethylcarbamoyl)-4H-1,2,4-triazol-4-yl)benzyl)piperidine-4-carbonyl)piperazin-1-yl)-2,6-dimethylphenyl (2-(2,6-dioxopiperidin-3-yl)-1-oxoisoindolin-4-yl)carbamate] | 0.109 | 2.36 | 5.5 | 0.014 | 211000 nM | 7230 nM | 2030 nM | –
